Assay: Gravimetric vapor sorption (GVS)
Type: physicochemical
Conditions: 25° C.
Protocol: GVS experiments were conducted on a Surface Measurement Systems DVS-Advantage. The experiments were performed at 25° C. The instrument was operated in step mode and the relative humidity was increased in 10% RH increments from 0% RH to 90% RH with an extra step at 75% RH, then decreased from 90% RH to 0% RH with an extra step at 75% RH. The mass equilibrium criterion was set at 0.005% change in mass over time (dm/dt). A minimum step time of 15 minutes and a maximum step time of 240 minutes were specified.

## CCN(CC)CC#CCOC(=O)[C@](O)(c1ccccc1)C1CCCCC1 [Form A, (R)-oxybutynin D-malate]
GVS, 0-90% RH
  hygroscopicity: non-hygroscopic solid
GVS, between 0-90% RH
  moisture uptake: 0.1%
After GVS cycle 0-90-0% RH
  change in crystal form after the GVS test: No change in crystal form was observed

Reference: patent US20240217918A1 (APNIMED, INC. (DELAWARE), priority 2021, published 2024)
